Tests used:
wild oat [1] = test: Test Example 4: herbicidal effect by soil treatment (Table 19, symbol I); format: in vivo, wild oat (Avena fatua); details: amount of applied herbicide 320 g/ha
Summary of the method: (§1)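 Herbicidal effect was rated 3 weeks after treatment, using the scoring criteria of an earlier test. The compound, formulated as an emulsion and diluted in water to a set herbicide amount, had been sprayed uniformly on soil over freshly sown seeds. Growth took place in a greenhouse at 25° C. to 30° C.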

persian speedwell [2] = test: Test Example 4: herbicidal effect by soil treatment (Table 19, symbol R); format: in vivo, Persian speedwell (Veronica persica); details: amount of applied herbicide 320 g/ha
Summary of the method: as §1

blackgrass [3] = test: Test Example 4: herbicidal effect by soil treatment (Table 19, symbol J); format: in vivo, blackgrass (Alopecurus myosuroides); details: amount of applied herbicide 320 g/ha
Summary of the method: as §1

lambsquarters [4] = test: Test Example 5: herbicidal effect by foliage application, plastic box (Table 20, symbol O); format: in vivo, lambsquarters (Chenopodium album); details: evaluated three weeks after application
Summary of the method: (§2)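 Foliar spray test: emulsion formulation diluted in water to a set application rate, sprayed onto 14-day-old plants raised in diluvial soil at 25° C to 30° C under glass. Both herbicidal effect and crop effect rated visually three weeks later.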

southern crabgrass [5] = test: Test Example 5: herbicidal effect by foliage application, plastic box (Table 20, symbol F); format: in vivo, southern crabgrass (Digitaria ciliaris); details: evaluated three weeks after application
Summary of the method: as §2

barnyard grass [6] = test: Test Example 5: herbicidal effect by foliage application, plastic box (Table 20, symbol H); format: in vivo, barnyard grass (Echinochloa crus-galli); details: evaluated three weeks after application
Summary of the method: as §2

velvetleaf [7] = test: Test Example 4: herbicidal effect by soil treatment (Table 19, symbol M); format: in vivo, velvetleaf (Abutilon theophrasti); details: amount of applied herbicide 320 g/ha
Summary of the method: as §1

velvetleaf [8] = test: Test Example 5: herbicidal effect by foliage application, plastic box (Table 20, symbol M); format: in vivo, velvetleaf (Abutilon theophrasti); details: evaluated three weeks after application
Summary of the method: as §2

green foxtail [9] = test: Test Example 4: herbicidal effect by soil treatment (Table 19, symbol G); format: in vivo, green foxtail (Setaria viridis); details: amount of applied herbicide 320 g/ha
Summary of the method: as §1

lambsquarters [10] = test: Test Example 4: herbicidal effect by soil treatment (Table 19, symbol O); format: in vivo, lambsquarters (Chenopodium album); details: amount of applied herbicide 320 g/ha
Summary of the method: as §1

Japanese bulrush = test: Test Example 1: herbicidal activity, application before weed generation under submerged conditions (Table 16, symbol B); format: in vivo, Japanese bulrush (Schoenoplectus juncoides)
Summary of the method: (§3)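 Emulsion formulation, water-diluted to set dose, was put onto the flooded surface (4 cm depth, alluvial soil) the same day weeds were sown and 2.5-leaf rice transplanted. After 3 weeks at 25-30 °C under glass, each species was rated 0 (≤5% kill) to 5 (≥90% kill).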

chickweed [11] = test: Test Example 4: herbicidal effect by soil treatment (Table 19, symbol P); format: in vivo, common chickweed (Stellaria media); details: amount of applied herbicide 320 g/ha
Summary of the method: as §1

Chinese sprangletop = test: Test Example 3: herbicidal effect by foliage application, Wagner pot (Table 18, symbol D); format: in vivo, chinese sprangletop (Leptochloa chinensis)
Summary of the method: (§4)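 Plants were sown in alluvial soil held under 0.1–0.5 cm standing water and grown 14 days in a greenhouse at 25–30 °C. An emulsifiable formulation, water-diluted to the set dose, was then sprayed onto the foliage, and effects were scored three weeks later using previously defined criteria.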

Italian ryegrass [12] = test: Test Example 5: herbicidal effect by foliage application, plastic box (Table 20, symbol K); format: in vivo, Italian ryegrass (Lolium multiflorum); details: evaluated three weeks after application
Summary of the method: as §2

windgrass [13] = test: Test Example 4: herbicidal effect by soil treatment (Table 19, symbol L); format: in vivo, windgrass (Apera spica-venti); details: amount of applied herbicide 320 g/ha
Summary of the method: as §1

southern crabgrass [14] = test: Test Example 4: herbicidal effect by soil treatment (Table 19, symbol F); format: in vivo, southern crabgrass (Digitaria ciliaris); details: amount of applied herbicide 320 g/ha
Summary of the method: as §1

blackgrass [15] = test: Test Example 5: herbicidal effect by foliage application, plastic box (Table 20, symbol J); format: in vivo, blackgrass (Alopecurus myosuroides); details: evaluated three weeks after application
Summary of the method: as §2

redroot pigweed [16] = test: Test Example 5: herbicidal effect by foliage application, plastic box (Table 20, symbol N); format: in vivo, redroot pigweed (Amaranthus retroflexus); details: evaluated three weeks after application
Summary of the method: as §2

green foxtail [17] = test: Test Example 5: herbicidal effect by foliage application, plastic box (Table 20, symbol G); format: in vivo, green foxtail (Setaria viridis); details: evaluated three weeks after application
Summary of the method: as §2

persian speedwell [18] = test: Test Example 5: herbicidal effect by foliage application, plastic box (Table 20, symbol R); format: in vivo, Persian speedwell (Veronica persica); details: evaluated three weeks after application
Summary of the method: as §2

windgrass [19] = test: Test Example 5: herbicidal effect by foliage application, plastic box (Table 20, symbol L); format: in vivo, windgrass (Apera spica-venti); details: evaluated three weeks after application
Summary of the method: as §2

Italian ryegrass [20] = test: Test Example 4: herbicidal effect by soil treatment (Table 19, symbol K); format: in vivo, Italian ryegrass (Lolium multiflorum); details: amount of applied herbicide 320 g/ha
Summary of the method: as §1

wild oat [21] = test: Test Example 5: herbicidal effect by foliage application, plastic box (Table 20, symbol I); format: in vivo, wild oat (Avena fatua); details: evaluated three weeks after application
Summary of the method: as §2

rice flat sedge = test: Test Example 3: herbicidal effect by foliage application, Wagner pot (Table 18, symbol E); format: in vivo, rice flat sedge (Cyperus iria)
Summary of the method: as §4

late watergrass = test: Test Example 1: herbicidal activity, application before weed generation under submerged conditions (Table 16, symbol A); format: in vivo, late watergrass (Echinochloa oryzicola)
Summary of the method: as §3

oval-leafed pondweed = test: Test Example 1: herbicidal activity, application before weed generation under submerged conditions (Table 16, symbol C); format: in vivo, oval-leafed pondweed (Monochoria vaginalis)
Summary of the method: as §3

redroot pigweed [22] = test: Test Example 4: herbicidal effect by soil treatment (Table 19, symbol N); format: in vivo, redroot pigweed (Amaranthus retroflexus); details: amount of applied herbicide 320 g/ha
Summary of the method: as §1

chickweed [23] = test: Test Example 5: herbicidal effect by foliage application, plastic box (Table 20, symbol P); format: in vivo, common chickweed (Stellaria media); details: evaluated three weeks after application
Summary of the method: as §2

barnyard grass [24] = test: Test Example 4: herbicidal effect by soil treatment (Table 19, symbol H); format: in vivo, barnyard grass (Echinochloa crus-galli); details: amount of applied herbicide 320 g/ha
Summary of the method: as §1

barnyard grass [25] = test: Test Example 3: herbicidal effect by foliage application, Wagner pot (Table 18, symbol H); format: in vivo, barnyard grass (Echinochloa crus-galli)
Summary of the method: as §4

[26] = 320 g/ha, foliage application after 14-day growth
[27] = amount of applied herbicide 320 g/ha
[28] = foliage application, AAH 320 g/ha

Structure (SMILES): CCCC(=O)Oc1c(C)nn(C)c(=O)c1-c1c(-c2ccc(OC(F)(F)F)cc2)sc2c(F)cccc12 [4-049]
- Herbicidal effect by soil treatment, I: wild oat (wild oat [1]): 0 (Herbicidal rate of 5% or less (almost no effect))
- Herbicidal effect by soil treatment, R: persian speedwell (persian speedwell [2]): 4 (Herbicidal rate of 70% or more and less than 90%)
- Herbicidal effect by soil treatment, J: blackgrass (blackgrass [3]): 0 (Herbicidal rate of 5% or less (almost no effect))
- herbicidal effect on O: lambsquarters (evaluation grade 0-5) (lambsquarters [4]; [26]): 3 (Herbicidal rate of 40% or more and less than 70%)
- herbicidal effect on F: southern crabgrass (evaluation grade 0-5) (southern crabgrass [5]; [26]): 0 (Herbicidal rate of 5% or less (almost no effect))
- herbicidal effect on H: barnyard grass (evaluation grade 0-5) (barnyard grass [6]; [26]): 5 (Herbicidal rate of 90% or more (almost completely withered))
- Herbicidal effect by soil treatment, M: velvetleaf (velvetleaf [7]): 0 (Herbicidal rate of 5% or less (almost no effect))
- herbicidal effect on M: velvetleaf (evaluation grade 0-5) (velvetleaf [8]; [26]): 5 (Herbicidal rate of 90% or more (almost completely withered))
- Herbicidal effect by soil treatment, G: green foxtail (green foxtail [9]): 0 (Herbicidal rate of 5% or less (almost no effect))
- Herbicidal effect by soil treatment, O: lambsquarters (lambsquarters [10]): 3 (Herbicidal rate of 40% or more and less than 70%)
- Herbicidal effect, B: Japanese bulrush (Japanese bulrush; [27]): 0 (Herbicidal rate of 5% or less (almost no effect))
- Herbicidal effect by soil treatment, P: chickweed (chickweed [11]): 3 (Herbicidal rate of 40% or more and less than 70%)
- herbicidal effect on Chinese sprangletop (D) (Chinese sprangletop; 320 g/ha): 3 (Herbicidal rate of 40% or more and less than 70%)
- herbicidal effect on K: Italian ryegrass (evaluation grade 0-5) (Italian ryegrass [12]; [26]): 0 (Herbicidal rate of 5% or less (almost no effect))
- Herbicidal effect by soil treatment, L: windgrass (windgrass [13]): 0 (Herbicidal rate of 5% or less (almost no effect))
- Herbicidal effect by soil treatment, F: southern crabgrass (southern crabgrass [14]): 0 (Herbicidal rate of 5% or less (almost no effect))
- herbicidal effect on J: blackgrass (evaluation grade 0-5) (blackgrass [15]; [26]): 0 (Herbicidal rate of 5% or less (almost no effect))
- herbicidal effect on N: redroot pigweed (evaluation grade 0-5) (redroot pigweed [16]; [26]): 5 (Herbicidal rate of 90% or more (almost completely withered))
- herbicidal effect on G: green foxtail (evaluation grade 0-5) (green foxtail [17]; [26]): 4 (Herbicidal rate of 70% or more and less than 90%)
- herbicidal effect on R: persian speedwell (evaluation grade 0-5) (persian speedwell [18]; [26]): 5 (Herbicidal rate of 90% or more (almost completely withered))
- herbicidal effect on L: windgrass (evaluation grade 0-5) (windgrass [19]; [26]): 0 (Herbicidal rate of 5% or less (almost no effect))
- Herbicidal effect by soil treatment, K: Italian ryegrass (Italian ryegrass [20]): 0 (Herbicidal rate of 5% or less (almost no effect))
- herbicidal effect on I: wild oat (evaluation grade 0-5) (wild oat [21]; [26]): 0 (Herbicidal rate of 5% or less (almost no effect))
- herbicidal effect on rice flat sedge (E) (rice flat sedge; 320 g/ha): 5 (Herbicidal rate of 90% or more (almost completely withered))
- Herbicidal effect, A: late watergrass (late watergrass; [27]): 3 (Herbicidal rate of 40% or more and less than 70%)
- Herbicidal effect, C: oval-leafed pondweed (oval-leafed pondweed; [27]): 0 (Herbicidal rate of 5% or less (almost no effect))
- Herbicidal effect by soil treatment, N: redroot pigweed (redroot pigweed [22]): 4 (Herbicidal rate of 70% or more and less than 90%)
- herbicidal effect on P: chickweed (evaluation grade 0-5) (chickweed [23]; [26]): 5 (Herbicidal rate of 90% or more (almost completely withered))
- Herbicidal effect by soil treatment, H: barnyard grass (barnyard grass [24]): 0 (Herbicidal rate of 5% or less (almost no effect))
- herbicidal effect on barnyard grass (H) (barnyard grass [25]; 320 g/ha): 5 (Herbicidal rate of 90% or more (almost completely withered))

Structure (SMILES): CSCc1ccc(-c2sc3ccc(F)cc3c2-c2c(O)c(C)nn(C)c2=O)cc1 [2-317]
- herbicidal effect on I: wild oat (wild oat [1]): 0 (Herbicidal rate of 5% or less (almost no effect))
- herbicidal effect on R: persian speedwell (persian speedwell [2]): 3 (Herbicidal rate of 40% or more and less than 70%)
- herbicidal effect on J: blackgrass (blackgrass [3]): 1 (Herbicidal rate of 5% or more and less than 20%)
- O: lambsquarters, herbicidal effect (criteria 0-5) (lambsquarters [4]; [28]): 5 (Herbicidal rate of 90% or more (almost completely withered))
- F: southern crabgrass, herbicidal effect (criteria 0-5) (southern crabgrass [5]; [28]): 5 (Herbicidal rate of 90% or more (almost completely withered))
- H: barnyard grass, herbicidal effect (criteria 0-5) (barnyard grass [6]; [28]): 5 (Herbicidal rate of 90% or more (almost completely withered))
- herbicidal effect on M: velvetleaf (velvetleaf [7]): 4 (Herbicidal rate of 70% or more and less than 90%)
- M: velvetleaf, herbicidal effect (criteria 0-5) (velvetleaf [8]; [28]): 5 (Herbicidal rate of 90% or more (almost completely withered))
- herbicidal effect on G: green foxtail (green foxtail [9]): 4 (Herbicidal rate of 70% or more and less than 90%)
- herbicidal effect on O: lambsquarters (lambsquarters [10]): 5 (Herbicidal rate of 90% or more (almost completely withered))
- Herbicidal effect on B: Japanese bulrush (grade 0-5) (Japanese bulrush; 320 g/ha applied herbicide): 0 (Herbicidal rate of 5% or less (almost no effect))
- herbicidal effect on P: chickweed (chickweed [11]): 0 (Herbicidal rate of 5% or less (almost no effect))
- herbicidal effect on D: Chinese sprangletop (Chinese sprangletop; [27]): 2 (Herbicidal rate of 20% or more and less than 40%)
- K: Italian ryegrass, herbicidal effect (criteria 0-5) (Italian ryegrass [12]; [28]): 5 (Herbicidal rate of 90% or more (almost completely withered))
- herbicidal effect on L: windgrass (windgrass [13]): 0 (Herbicidal rate of 5% or less (almost no effect))
- herbicidal effect on F: southern crabgrass (southern crabgrass [14]): 4 (Herbicidal rate of 70% or more and less than 90%)
- J: blackgrass, herbicidal effect (criteria 0-5) (blackgrass [15]; [28]): 4 (Herbicidal rate of 70% or more and less than 90%)
- N: redroot pigweed, herbicidal effect (criteria 0-5) (redroot pigweed [16]; [28]): 5 (Herbicidal rate of 90% or more (almost completely withered))
- G: green foxtail, herbicidal effect (criteria 0-5) (green foxtail [17]; [28]): 5 (Herbicidal rate of 90% or more (almost completely withered))
- R: persian speedwell, herbicidal effect (criteria 0-5) (persian speedwell [18]; [28]): 5 (Herbicidal rate of 90% or more (almost completely withered))
- L: windgrass, herbicidal effect (criteria 0-5) (windgrass [19]; [28]): 5 (Herbicidal rate of 90% or more (almost completely withered))
- herbicidal effect on K: Italian ryegrass (Italian ryegrass [20]): 4 (Herbicidal rate of 70% or more and less than 90%)
- I: wild oat, herbicidal effect (criteria 0-5) (wild oat [21]; [28]): 5 (Herbicidal rate of 90% or more (almost completely withered))
- herbicidal effect on E: rice flat sedge (rice flat sedge; [27]): 5 (Herbicidal rate of 90% or more (almost completely withered))
- Herbicidal effect on A: late watergrass (grade 0-5) (late watergrass; 320 g/ha applied herbicide): 3 (Herbicidal rate of 40% or more and less than 70%)
- Herbicidal effect on C: oval-leafed pondweed (grade 0-5) (oval-leafed pondweed; 320 g/ha applied herbicide): 0 (Herbicidal rate of 5% or less (almost no effect))
- herbicidal effect on N: redroot pigweed (redroot pigweed [22]): 5 (Herbicidal rate of 90% or more (almost completely withered))
- P: chickweed, herbicidal effect (criteria 0-5) (chickweed [23]; [28]): 5 (Herbicidal rate of 90% or more (almost completely withered))
- herbicidal effect on H: barnyard grass (barnyard grass [24]): 5 (Herbicidal rate of 90% or more (almost completely withered))
- herbicidal effect on H: barnyard grass (barnyard grass [25]; [27]): 5 (Herbicidal rate of 90% or more (almost completely withered))
